Among the data in ChEMBL document CHEMBL1132078, “Bicyclo[3.2.1]octanes: synthesis and inhibition of binding at the dopamine and serotonin transporters” (Bioorg Med Chem Lett, 1999) are IC50 values, retold here.

Molecules are shown by their SMILES.

The target of assay [1] is Sodium-dependent serotonin transporter. Nature of the assay: Inhibition of [3H]citalopram binding to serotonin transporter (SERT) of cynomolgus monkey caudate-putamen. In kind it is tissue-based.
For assay [2], the target named is Sodium-dependent dopamine transporter (Macaca fascicularis, UniProt Q9GJT6). Nature of the assay: Inhibition of [3H]WIN-35428 binding to dopamine transporter (DAT) of cynomolgus monkey caudate-putamen. The assay is classed as tissue-based.
Chain of Sodium-dependent dopamine transporter (Q9GJT6 whole entry): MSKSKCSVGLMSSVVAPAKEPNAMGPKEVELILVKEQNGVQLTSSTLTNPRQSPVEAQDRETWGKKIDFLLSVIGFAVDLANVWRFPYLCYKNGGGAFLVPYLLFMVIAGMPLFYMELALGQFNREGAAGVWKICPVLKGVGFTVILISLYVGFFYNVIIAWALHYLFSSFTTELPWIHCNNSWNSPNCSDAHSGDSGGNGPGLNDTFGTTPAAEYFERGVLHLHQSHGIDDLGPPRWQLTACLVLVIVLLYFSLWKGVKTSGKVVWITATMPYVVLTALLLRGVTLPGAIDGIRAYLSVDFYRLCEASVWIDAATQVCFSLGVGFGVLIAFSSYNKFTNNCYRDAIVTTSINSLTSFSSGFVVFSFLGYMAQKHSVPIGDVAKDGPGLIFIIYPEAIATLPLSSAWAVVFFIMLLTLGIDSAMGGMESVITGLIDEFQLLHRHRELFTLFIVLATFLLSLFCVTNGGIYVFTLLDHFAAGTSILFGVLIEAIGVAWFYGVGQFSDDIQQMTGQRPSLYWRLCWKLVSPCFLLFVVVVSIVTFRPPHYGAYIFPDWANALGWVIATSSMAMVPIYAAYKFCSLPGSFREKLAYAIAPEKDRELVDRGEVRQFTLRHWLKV

On to `COC(=O)C1=C(c2ccc(Cl)c(Cl)c2)CC2CCC1N2C` (stereo not given), for which the IC50 (as a rule, the concentration that inhibits the measured activity by half) in assay [1] worked out at 867 nM; in assay [2] it was 1.2 nM.

Take `COC(=O)C1C2CCC(C2)CC1c1ccc(Cl)c(Cl)c1` (stereo in doubt; 6a (R/S)): the IC50 in assay [1] turned out to be 33.4 nM; in assay [2] it was 9.6 nM.

Regarding `COC(=O)C1=C(c2ccc(Cl)c(Cl)c2)CC2CCC1O2` (stereo in doubt; 5b (R)), the IC50 in assay [1] was determined as 2120 nM; in assay [2], 4.2 nM.

Consider `COC(=O)C1=C(c2ccc(Cl)c(Cl)c2)CC2CCC1C2` (racemic), for which the concentration for half-maximal inhibition (IC50) in assay [1] amounted to 5160 nM; in assay [2] it was 7.1 nM.

Turning to `COC(=O)C1C(c2ccc(Cl)c(Cl)c2)CC2CCC1N2C` (stereo not given), the IC50 in assay [1] turned out to be 27.6 nM; in assay [2], 1.1 nM.

`COC(=O)C1C2CCC(CC1c1ccc(Cl)c(Cl)c1)O2` (racemic; form 1) registered a half-inhibitory concentration (IC50) in assay [2] of 3.4 nM.

Consider `COC(=O)C1C2CCC(C2)CC1c1ccc(Cl)c(Cl)c1` (racemic), for which the IC50 in assay [1] was found to be 180 nM; in assay [2], 14.3 nM.

`COC(=O)C1C2CCC(CC1c1ccc(Cl)c(Cl)c1)O2` (racemic; form 2) came in with a half-maximal inhibitory concentration (IC50) in assay [2] of 3.1 nM.

For `COC(=O)C1=C(c2ccc(Cl)c(Cl)c2)CC2CCC1O2` (stereo in doubt; 5b (R/S)), the IC50 in assay [1] was 1960 nM; in assay [2], 12.8 nM.

Turning to `COC(=O)C1C2CCC(CC1c1ccc(Cl)c(Cl)c1)N2` (stereo not given), the IC50 in assay [1] was 1.24 nM; in assay [2] it was 0.7 nM.

As to `COC(=O)C1C2CCC(CC1c1ccc(Cl)c(Cl)c1)O2` (stereo in doubt; 7b (R)), the concentration for half-maximal inhibition (IC50) in assay [1] is 30.3 nM; in assay [2] it was 2.3 nM.
